The numbers were not newly measured in patent US9814782B2, “Modified antibody in which motif comprising cysteine residue is bound, modified antibody-drug conjugate comprising the modified antibody, and production method for same” (Alteogen Inc., priority 2012, dated 2017), which cites them from elsewhere.

The conditions of the data set: known value; read-out: IC50 value in a cell proliferation inhibition assay.

With Auristatin, the IC50 is 0.2 to 0.3 nM.
